PubChem BioAssay AID248 (DTP/NCI, 2004)
“And” between values parts separate entries of the source, which are not always exact repeats. Equal entries are not always repeated. Toxic doses and inconclusive results are not listed.

System: L1210 leukemia ip in BDF1 mice, survival T/C
Assay: NCI In Vivo Anticancer Drug Screen. Data for tumor model L1210 Leukemia (intraperitoneal) in B6D2F1 (BDF1) mice
Conditions: endpoint: mean survival time, higher = longer survival
Outline: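 Tumor was transplanted into mice, which were then dosed with test compound or vehicle alone. Survival was recorded for each group, and the treated figure was expressed relative to the control figure.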

[1] = dose: 100.0 mg/kg/injection, schedule: Q04DX003 (ip), vehicle: Klucel (hydroxypropylcellulose) (HPC)
[2] = dose: 200.0 mg/kg/injection, schedule: Q04DX003 (ip), vehicle: Klucel (hydroxypropylcellulose) (HPC)
[3] = dose: 400.0 mg/kg/injection, schedule: Q04DX003 (ip), vehicle: Klucel (hydroxypropylcellulose) (HPC)
[4] = dose: 100.0 mg/kg/injection, schedule: Q01DX009 (ip), vehicle: saline with Tween-80
[5] = dose: 100.0 mg/kg/injection, schedule: Q04DX002 (ip), vehicle: saline with Tween-80
[6] = dose: 200.0 mg/kg/injection, schedule: Q01DX009 (ip), vehicle: saline with Tween-80
[7] = dose: 100.0 mg/kg/injection, schedule: Q01DX001 (ip), vehicle: saline
[8] = dose: 100.0 mg/kg/injection, schedule: Q01DX009 (ip), vehicle: saline
[9] = dose: 200.0 mg/kg/injection, schedule: Q01DX001 (ip), vehicle: saline
[10] = dose: 200.0 mg/kg/injection, schedule: Q01DX009 (ip), vehicle: saline
[11] = dose: 75.0 mg/kg/injection, schedule: Q01DX001 (ip), vehicle: saline
[12] = dose: 150.0 mg/kg/injection, schedule: Q01DX001 (ip), vehicle: saline
[13] = dose: 100.0 mg/kg/injection, schedule: Q04DX003 (ip), vehicle: saline with Tween-80
[14] = dose: 100.0 mg/kg/injection, schedule: Q04DX003 (ip), vehicle: saline
[15] = dose: 200.0 mg/kg/injection, schedule: Q04DX003 (ip), vehicle: saline
[16] = dose: 400.0 mg/kg/injection, schedule: Q04DX003 (ip), vehicle: saline
[17] = dose: 100.0 mg/kg/injection, schedule: Q01DX009 (ip), vehicle: Klucel (hydroxypropylcellulose) (HPC)
[18] = dose: 200.0 mg/kg/injection, schedule: Q01DX009 (ip), vehicle: Klucel (hydroxypropylcellulose) (HPC)
[19] = dose: 50.0 mg/kg/injection, schedule: Q01DX009 (ip), vehicle: Klucel (hydroxypropylcellulose) (HPC)

In the case of `C[n+]1ccc(NC(=O)c2ccc(NC(=O)c3ccc(C(=O)Nc4ccc(C(=O)Nc5cc[n+](C)cc5)cc4)c(N)c3)cc2)cc1`, the T/C (dose: 8.1 mg/kg/injection, schedule: Q01DX Z (oral), vehicle: water) is reported as 97 % of control, the T/C (dose: 10.0 mg/kg/injection, schedule: Q01DX Z (ip), vehicle: water) is reported as 123 % of control and the T/C (dose: 12.5 mg/kg/injection, schedule: Q01DX Z (ip), vehicle: water) is reported as 124 % of control. The T/C (dose: 16.3 mg/kg/injection, schedule: Q01DX Z (oral), vehicle: water) was 112 % of control, the T/C (dose: 20.0 mg/kg/injection, schedule: Q01DX Z (ip), vehicle: water) was 162 % of control and the T/C (dose: 25.0 mg/kg/injection, schedule: Q01DX Z (ip), vehicle: water) was 150 % of control. The T/C (dose: 32.5 mg/kg/injection, schedule: Q01DX Z (oral), vehicle: water) was 101 % of control, the T/C (dose: 40.0 mg/kg/injection, schedule: Q01DX Z (ip), vehicle: water) was 91 % of control and the T/C (dose: 50.0 mg/kg/injection, schedule: Q01DX Z (ip), vehicle: water) was 120 % of control. The T/C (dose: 62.0 mg/kg/injection, schedule: Q01DX Z (ip), vehicle: carboxymethylcellulose (CMC)) was 118 % of control and the T/C (dose: 65.0 mg/kg/injection, schedule: Q01DX Z (oral), vehicle: water) was 105 % of control.
In the case of `CC1(C)C2CCC(CCOC(=O)COc3ccc(Cl)cc3)C1C2` (centres undefined), the T/C [1] is reported as 98 % of control, the T/C [2] is reported as 100 % of control and the T/C [3] is reported as 100 % of control.
With `CC1CN=C(c2ccc3ccccc3c2O)S1` (centres undefined) the T/C (dose: 100.0 mg/kg/injection, schedule: Q01DX005 (ip), vehicle: saline with Tween-80) was 90 % of control, the T/C [4] was 113 % of control and the T/C [5] was 103 % of control. The T/C (dose: 200.0 mg/kg/injection, schedule: Q01DX005 (ip), vehicle: saline with Tween-80) was 90 % of control, the T/C [6] was 90 % of control and the T/C (dose: 200.0 mg/kg/injection, schedule: Q04DX002 (ip), vehicle: saline with Tween-80) was 96 % of control. For the same compound, the T/C (dose: 400.0 mg/kg/injection, schedule: Q01DX009 (ip), vehicle: saline with Tween-80) was 94 % of control and the T/C (dose: 400.0 mg/kg/injection, schedule: Q04DX002 (ip), vehicle: saline with Tween-80) was 103 % of control.
For `O=C(Oc1ccccc1C(=O)O)c1ccccc1O`, the T/C (dose: 50.0 mg/kg/injection, schedule: Q04DX003 (ip), vehicle: Klucel (hydroxypropylcellulose) (HPC)) was 90 % of control, the T/C [1] was 97 % of control and 102 % of control and the T/C [2] was 114 % of control. The T/C [3] was 96 % of control.
`N/N=C\C=N\N` was tested, and the T/C (dose: 15.0 mg/kg/injection, schedule: Q01DX Z (ip), vehicle: saline) was 107 % of control, the T/C (dose: 30.0 mg/kg/injection, schedule: Q01DX Z (ip), vehicle: saline) was 107 % of control and the T/C (dose: 60.0 mg/kg/injection, schedule: Q01DX Z (ip), vehicle: saline) was 107 % of control.
`Cc1nc2c(N)nn(C)c2nc1C` was tested, and the T/C [4] was 96 % of control and the T/C [6] was 102 % of control.
For `O=C(c1ccc([N+](=O)[O-])cc1)N1C2CCCCCCC21` (centres undefined), the T/C (dose: 50.0 mg/kg/injection, schedule: Q01DX009 (ip), vehicle: saline) was 121 % of control, the T/C [7] was 94 % of control and the T/C [8] was 113 % of control. For the same compound, the T/C [9] was 89 % of control and the T/C [10] was 110 % of control.
`CN(C)c1ccc(/C=C\c2cc(/C=C/c3ccc(N(C)C)cc3)c([N+](=O)[O-])cc2[N+](=O)[O-])cc1` was tested, and the T/C [11] was 98 % of control and 89 % of control, the T/C [12] was 86 % of control and the T/C (dose: 300.0 mg/kg/injection, schedule: Q01DX001 (ip), vehicle: saline) was 95 % of control and 101 % of control.
`Cc1cc(C)c(C[N+](C)(C)C)c(C)c1C` was tested, and the T/C (dose: 50.0 mg/kg/injection, schedule: Q01DX001 (ip), vehicle: saline) was 102 % of control.
In the case of `Nc1nc2ccccc2c(=O)[nH]1`, the T/C (dose: 25.0 mg/kg/injection, schedule: Q04DX003 (ip), vehicle: saline with Tween-80) is reported as 110 % of control, the T/C (dose: 50.0 mg/kg/injection, schedule: Q04DX003 (ip), vehicle: saline with Tween-80) is reported as 96 % of control and the T/C [13] is reported as 102 % of control and 106 % of control.
With `O=[N+]([O-])c1ccccc1N1CCCCC1` the T/C [1] was 97 % of control, the T/C [2] was 89 % of control and the T/C [3] was 109 % of control.
For `CC1(N)CCOC1=O` (centres undefined), the T/C [8] was 93 % of control, the T/C [10] was 93 % of control and the T/C (dose: 400.0 mg/kg/injection, schedule: Q01DX009 (ip), vehicle: saline) was 93 % of control.
In the case of `C=C(Cl)CSC(=N)N`, the T/C (dose: 10.0 mg/kg/injection, schedule: Q01DX009 (ip), vehicle: saline) is reported as 109 % of control, the T/C (dose: 12.0 mg/kg/injection, schedule: Q01DX009 (ip), vehicle: Klucel (hydroxypropylcellulose) (HPC)) is reported as 88 % of control and the T/C (dose: 20.0 mg/kg/injection, schedule: Q01DX009 (ip), vehicle: saline) is reported as 101 % of control. The T/C (dose: 25.0 mg/kg/injection, schedule: Q01DX009 (ip), vehicle: Klucel (hydroxypropylcellulose) (HPC)) was 103 % of control, the T/C [14] was 108 % of control and the T/C [15] was 106 % of control. The T/C [16] was 104 % of control.
`COc1ccc(/C=N/NC(=O)c2ccccc2)c(OC)c1` was tested, and the T/C [17] was 100 % of control, the T/C [18] was 100 % of control and the T/C (dose: 400.0 mg/kg/injection, schedule: Q01DX009 (ip), vehicle: Klucel (hydroxypropylcellulose) (HPC)) was 103 % of control.
For `O=[N+]([O-])c1ccc2[nH]c(=S)[nH]c2c1`, the T/C [14] was 98 % of control, the T/C [15] was 103 % of control and the T/C [16] was 95 % of control.
With `O=NSC(c1ccccc1)(c1ccccc1)c1ccccc1` the T/C [19] was 94 % of control, the T/C [17] was 89 % of control and the T/C [18] was 93 % of control.
With `CC(=O)NC(C)C` the T/C [13] was 93 % of control, the T/C (dose: 200.0 mg/kg/injection, schedule: Q04DX003 (ip), vehicle: saline with Tween-80) was 100 % of control and the T/C (dose: 400.0 mg/kg/injection, schedule: Q04DX003 (ip), vehicle: saline with Tween-80) was 96 % of control.
`CCN(CC)CCCNC(c1ccc(Cl)cc1)C(Cl)(Cl)Cl` (centres undefined) was tested, and the T/C [11] was 88 % of control.
For `CCc1c(Cl)nc(N)nc1Nc1ccc(C)c(C)c1`, the T/C (dose: 100.0 mg/kg/injection, schedule: Q01DX Z (ip), vehicle: methylcellulose (MC)) was 91 % of control and the T/C (dose: 200.0 mg/kg/injection, schedule: Q01DX Z (ip), vehicle: methylcellulose (MC)) was 93 % of control.
In the case of `CC(=O)Nc1nccs1`, the T/C [19] is reported as 94 % of control, the T/C [17] is reported as 97 % of control and the T/C [1] is reported as 97 % of control. The T/C [2] was 97 % of control.
In the case of `CN1CCC(CSC(=O)C(O)(c2ccccc2)C2CCCCC2)C1` (centres undefined), the T/C [11] is reported as 97 % of control.
For `CC(/C=C\C1CCCCC1)=C\C=C\C(C)=C\C=N\Nc1ccc([N+](=O)[O-])cc1[N+](=O)[O-]`, the T/C (dose: 1.56 mg/kg/injection, schedule: Q01DX001 (ip), vehicle: saline with Tween-80) was 95 % of control, the T/C (dose: 3.13 mg/kg/injection, schedule: Q01DX001 (ip), vehicle: saline with Tween-80) was 95 % of control and the T/C (dose: 6.25 mg/kg/injection, schedule: Q01DX001 (ip), vehicle: saline with Tween-80) was 95 % of control. The T/C (dose: 50.0 mg/kg/injection, schedule: Q01DX001 (ip), vehicle: saline with Tween-80) was 89 % of control.
For `COc1ccc(OC)c(-c2cc3c(OC)ccc(OC)c3[nH]2)c1`, the T/C (dose: 25.0 mg/kg/injection, schedule: Q04DX002 (ip), vehicle: saline with Tween-80) was 96 % of control, the T/C (dose: 50.0 mg/kg/injection, schedule: Q04DX002 (ip), vehicle: saline with Tween-80) was 86 % of control and the T/C [5] was 99 % of control.
With `O=C(Cc1ccc(CC(=O)NO)cc1)NO` the T/C [11] was 100 % of control and the T/C [12] was 96 % of control.
For `CCOC(=O)C(C)(C(=O)OCC)c1cccc2ccccc12`, the T/C (dose: 100.0 mg/kg/injection, schedule: Q01DX001 (ip), vehicle: other) was 98 % of control, the T/C (dose: 100.0 mg/kg/injection, schedule: Q04DX003 (ip), vehicle: other) was 93 % of control and the T/C (dose: 200.0 mg/kg/injection, schedule: Q01DX001 (ip), vehicle: other) was 102 % of control. For the same compound, the T/C (dose: 200.0 mg/kg/injection, schedule: Q04DX003 (ip), vehicle: other) was 100 % of control, the T/C (dose: 400.0 mg/kg/injection, schedule: Q01DX001 (ip), vehicle: other) was 96 % of control and the T/C (dose: 400.0 mg/kg/injection, schedule: Q04DX003 (ip), vehicle: other) was 94 % of control.
With `Oc1ccccc1N=Cc1ccccc1` the T/C [7] was 94 % of control, the T/C [9] was 100 % of control and the T/C (dose: 400.0 mg/kg/injection, schedule: Q01DX001 (ip), vehicle: saline) was 103 % of control.
